Results taken from patent US10703748B2, “Diazanaphthalen-3-yl carboxamides and preparation and use thereof” (Samumed, LLC, priority 2017, dated 2020).

Key:
[1] = system: Tau phosphorylation at Threonine 212 (pT212Tau); assay: Tau phosphorylation at Threonine 212 (pT212Tau) in Dyrk1a- and MAPT-overexpressing HEK293T cells, sandwich ELISA; assay type: cell-based; conditions: Homo sapiens, HEK-293T, overnight (16-18 hours), read-out: Thr212 EC50
Procedure: HEK293T cells (transfectable human embryonic kidney cells) were cultured in DMEM medium supplemented with 10% FBS and 1% penicillin/streptomycin.
HEK293T cells were transiently transfected to overexpress Dyrk1a and microtubule-associated protein Tau (MAPT) genes. Specifically, Dyrk1a and MAPT expression vectors were obtained from OriGene (10 μg of each, catalog numbers SC314641 and RC216166, respectively). A MaxiPrep for each vector was ordered and received from GeneWiz, yielding 874.5 μg (resuspended at […]) of the Dyrk1a expression vector, and 898 μg (resuspended at […]) of MAPT.
HEK293T cells were seeded at 1.0×10^7 cells in 10 mL per T-75 flask. […] One T-75 flask was designated as a no-vector negative control for pT212Tau signal.
After 4-6 hours of incubation in transfection reagents, transiently double transfected HEK293T cells were dissociated by treatment with trypsin EDTA and seeded at 1.0×10^5 cells in 100 μL per well in 96-well plates. No-vector negative controls were seeded in separate 96-well plates to avoid the risk of the negative control cells picking up the overexpression during incubation. At the time of seeding, DMSO-resuspended Samumed compounds were dispensed to eight wells as a serial dilution from 10 μM to 4.6 nM final concentration in medium, or at 0.12 μM to 0.05 nM with particularly potent compounds. Cells were exposed to the representative compounds overnight (16-18 hours) in a 37° C. incubator.
96-Well flat-bottom plates were coated with 100 μL per well anti-HT7 capture antibody (ThermoFisher, MN1000) diluted 1:300 in 1×PBS at 4° C. overnight, with shaking at 500 rpm. After overnight capture antibody incubation, coated plates were washed four times with 200 μL per well of 1×PBS-0.05% Tween-20, and blocked for 1 hour with 200 μL per well of 1×PBS with 2% BSA. After 1 hour of blocking, plates were washed four times with 200 μL per well of 1×PBS-0.05% Tween-20, prior to sample loading.
Wells of compound-treated cells were visually checked for cell death before being washed with 200 μL per well of 1×DPBS supplemented with phosphatase inhibitor diluted to 1×. Cells were then lysed with 100 μL 1×RIPA buffer supplemented with phosphatase and protease inhibitors (each diluted to a final 1×). Cells were shaken at 500 rpm, 4° C. for 20 minutes prior to further lysis (via manual scraping) and transfer to 96-well V-bottom collection plates (Corning, 3894). V-bottom plates were centrifuged at 4000 rpm, 4° C., for 15 minutes, and 100 μL of lysate supernatant from each well was directly tested for pT212Tau signal by sandwich ELISA.
Specifically, lysates were directly transferred to the coated and blocked ELISA plates for 2 hours before plates were washed four times with 200 μL per well of 1×PBS-0.05% Tween-20 and probed with 100 μL per well of anti-pT212Tau antibody (ThermoFisher, 44-740G) diluted 1:200 in 1×PBS for 2 hours. Plates were washed four times with 200 μL per well of 1×PBS-0.05% Tween-20 and probed with 100 μL per well of anti-rabbit/HRP conjugate (Cell Signaling Technology, 7074S) diluted 1:600 in 1×PBS for 1 hour. Plates were washed four times with 200 μL per well of 1×PBS-0.05% Tween-20 before 100 μL per well of TMB substrate solution (ThermoFisher, N301) was added. When colour development was observed, 100 μL per well of stop solution (ThermoFisher, N600) was added, and colorimetric detection of pT212Tau signal was read at 450 nm with the Cytation 3 Cell Imaging Multi-Mode Reader (BioTek). The signal was used to plot, draw the curves fitting, and determine the EC50 values in GraphPad Prism for tested representative compounds.

[2] = system: SW480 colon carcinoma cells; assay: Cell viability assay (CellTiter-Glo); conditions: Homo sapiens; for EC50: SW480, 96 h; for inhibition at 10 µM: SW480, read-out: percent inhibition at 10 μM
GSK3β kinase = GSK3β kinase (Homo sapiens, UniProt P49841); assay: GSK3β kinase activity (Ser/Thr 09 peptide Z-lyte FRET assay); assay type: biochemical; conditions: recombinant kinase, 46 μM ATP, one hour at room temperature; read-out: EC50
DYRK1A kinase = DYRK1A kinase (Homo sapiens, UniProt Q13627); assay: DYRK1A kinase activity (Ser/Thr 18 peptide Z-lyte FRET assay); assay type: biochemical; conditions: recombinant DYRK1A, 30 μM ATP, one hour at room temperature;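 further: kinase activity read as coumarin/fluorescein emission ratio after development step, with unphosphorylated and phosphorylated peptide forms setting 0% and 100% controls, values from dose-response curves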
IL-6 = IL-6 inhibition in LPS-stimulated human peripheral blood mononuclear cells (HTRF); conditions: Homo sapiens, PBMC; for EC50: 22 h; for inhibition at 10 µM: read-out: percentage in parentheses after EC50 >10
[3] = system: Tau phosphorylation at Ser396 (pSer396); assay: Tau phosphorylation at Ser396 (pSer396) in SH-SY5Y cells, ELISA / western blot; assay type: cell-based, human; conditions: Homo sapiens; SH-SY5Y cells, overnight (16-18 h); read-out: pSer396 Tau EC50;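 further: decrease in pSer396 Tau measured in lysates of treated cells by colorimetric ELISA or chemiluminescent western blot, same pSer396 antibody for both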
Procedure: Two days before treatment, cells were seeded onto 96 well plates at 5×10^4 cells/well.
The above synthesized compounds were screened using the cell assay procedure to assess decrease Tau phosphorylation at Ser396 (pSer396) described below.
Cells were lysed with RIPA buffer complemented with phosphatase and protease inhibitors then lysates were spun down at 12,000 g for 10 min to remove any cellular debris.

[4] = system: secreted cytokines TNFα, IL-6 and KC-GRO; assay: Secreted cytokines in Lipopolysaccharide-stimulated BV-2 cells (Table 9 does not say which cytokine); assay type: cell-based, mouse; conditions: Mus musculus, BV-2, 5 h; read-out: EC50
[5] = system: α-smooth muscle actin (aSMA) positive LL29 cells; assay: Inhibition of the fibrotic process: αSMA staining in TGF-β1 treated LL29 fibroblasts from IPF patients; conditions: Homo sapiens, Fibroblast; for EC50: 96 h; for inhibition at 10 µM: read-out: percentage in parentheses after EC50 >10
[6] = system: Wnt-responsive Sp5-Luc reporter in SW480 colon carcinoma cells; assay: Screening assay for Wnt activity (Sp5-Luc reporter gene assay); conditions: Homo sapiens, SW480

Chain of GSK3β kinase (P49841 whole entry): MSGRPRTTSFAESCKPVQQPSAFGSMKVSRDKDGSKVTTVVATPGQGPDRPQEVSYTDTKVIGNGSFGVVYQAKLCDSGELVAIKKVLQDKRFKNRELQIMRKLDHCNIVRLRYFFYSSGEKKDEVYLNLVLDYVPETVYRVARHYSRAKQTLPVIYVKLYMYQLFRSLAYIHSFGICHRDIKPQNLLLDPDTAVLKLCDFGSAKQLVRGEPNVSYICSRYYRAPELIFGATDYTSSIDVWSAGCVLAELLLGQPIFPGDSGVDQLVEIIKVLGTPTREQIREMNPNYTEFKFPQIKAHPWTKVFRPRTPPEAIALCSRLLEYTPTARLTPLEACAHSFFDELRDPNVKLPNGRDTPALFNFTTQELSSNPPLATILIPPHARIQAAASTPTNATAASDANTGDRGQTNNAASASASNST

Structure (SMILES)	EC50 [1] [µM]	EC50 [2] [µM]	EC50 (GSK3β kinase) [µM]	EC50 (DYRK1A kinase) [µM]	EC50 (IL-6) [µM]	EC50 [3] [µM]	EC50 [4] [µM]	EC50 [6] [µM]	EC50 [5] [µM]	inhibition at 10 µM (IL-6) [%]	inhibition at 10 µM [5] [%]	inhibition at 10 µM [2] [%]
CN1CCC(Oc2ccc(C(=O)Nc3cc4cc(-c5cnn(C)c5)cnc4cn3)cc2)CC1 [Compound 2865, N-(3-(1-Methyl-1H-pyrazol-4-yl)-1,7-naphthyridin-6-yl)-4-((1-methylpiperidin-4-yl)oxy)benzamide]	0.122	4.38	> 10	0.041	9.61	> 10	0.16	3.02	5.12			
Cn1cc(-c2cc3cc(NC(=O)c4ccnc(N5CCNCC5)c4)ncc3cn2)cn1 [Compound 3773, N-(6-(1-Methyl-1H-pyrazol-4-yl)-2,7-naphthyridin-3-yl)-2-(piperazin-1-yl) isonicotinamide]	0.268	5.64	0.852	0.016	> 10	> 10	0.305	2.83	3.32	1.1		
O=C(Nc1cc2cc(-c3cncs3)ncc2cn1)C1CCN(C2COC2)CC1 [Compound 4244, 1-(Oxetan-3-yl)-N-(6-(thiazol-5-yl)-2,7-naphthyridin-3-yl)piperidine-4-carboxamide]	0.157	> 10	0.03	0.004	> 10	0.284	> 10	0.863	> 10	6.9	4.9	19.9
Cc1ncc(-c2ccc3cnc(NC(=O)C4CCN(C(=O)CN5CCCC5)CC4)cc3n2)s1 [Compound 4561, N-(2-(2-Methylthiazol-5-yl)-1,6-naphthyridin-7-yl)-1-(2-(pyrrolidin-1-yl)acetyl)piperidine-4-carboxamide]	0.306	> 10	0.182	0.007	4.56	2.1	0.129	0.953	0.664			49.5

Further lines, with some results ahead:

EC50 [1] [µM]	EC50 [2] [µM]	EC50 (GSK3β kinase) [µM]	EC50 (DYRK1A kinase) [µM]	EC50 (IL-6) [µM]	EC50 [3] [µM]	EC50 [4] [µM]	EC50 [6] [µM]	Structure (SMILES)	EC50 [5] [µM]	inhibition at 10 µM (IL-6) [%]	inhibition at 10 µM [5] [%]	inhibition at 10 µM [2] [%]
0.112	6.92	0.027	0.006	> 10	1.5	1.4	0.593	Cn1cc(-c2cc3cc(NC(=O)C4CCNCC4)ncc3cn2)cn1 [Compound 3638, N-(6-(1-Methyl-1H-pyrazol-4-yl)-2,7-naphthyridin-3-yl)piperidine-4-carboxamide]	> 10	6.3	34.9	
0.03	6.99	0.031	0.01	> 10	0.102	3.9	0.073	CC(C)CN1CCC(C(=O)Nc2cc3cc(-c4cnn(C)c4)ncc3cn2)CC1 [Compound 3643, 1-Isobutyl-N-(6-(1-methyl-1H-pyrazol-4-yl)-2,7-naphthyridin-3-yl) piperidine-4-carboxamide]	2.5	9.8		
0.015	6.66	0.018	0.004	> 10	0.398	> 10	0.426	Cn1cc(-c2cc3cc(NC(=O)C4CCN(Cc5ncccn5)CC4)ncc3cn2)cn1 [Compound 3727, N-(6-(1-Methyl-1H-pyrazol-4-yl)-2,7-naphthyridin-3-yl)-1-(pyrimidin-2-ylmethyl)piperidine-4-carboxamide]	0.149	6.2		
